Laboratory results reported in ChEMBL document CHEMBL5236579, “Hydrophobicity Determines the Bacterial Killing Rate of α-Helical Antimicrobial Peptides and Influences the Bacterial Resistance Development” (J Med Chem, 2022).
In brackets after ≈: the same amount, converted by molar mass. Activity calls are given as the source filed them. No cut-off for these calls is given here. Where a SMILES comes first, the peptide text is derived from it.

Key:
Staphylococcus aureus [1] = assay: Antimicrobial activity against Staphylococcus aureus ATCC25923 by two fold broth microdilution method; format: functional; details: read-out: MIC
Staphylococcus aureus [2] = assay: Antimicrobial activity against clinical isolates Staphylococcus aureus by two fold broth microdilution method; format: functional
Bacillus cereus = assay: Antimicrobial activity against clinical isolates Bacillus cereus by two fold broth microdilution method; format: functional
Escherichia coli [3] = assay: Antimicrobial activity against Escherichia coli ATCC27622 by two fold broth microdilution method; format: functional
Vibrio parahaemolyticus [4] = assay: Antimicrobial activity against Vibrio parahaemolyticus ATCC17802 by two fold broth microdilution method; format: functional
Vibrio parahaemolyticus [5] = assay: Bactericidal activity against Vibrio parahaemolyticus ATCC17802 assessed as killing rate at 0.5 X MIC by measuring time limit of detection by bacterial killing kinetic assay; format: functional
Vibrio parahaemolyticus [6] = assay: Induction of morphological changes in Vibrio parahaemolyticus ATCC17802 assessed as massive cell collapse incubated at 5 times MIC and measured after 60 mins by scanning electron microscopy based analysis; format: functional, organism-based
Vibrio parahaemolyticus [7] = assay: Induction of morphological changes in Vibrio parahaemolyticus ATCC17802 assessed as surface fibrosis incubated at 5 times MIC and measured after 60 mins by scanning electron microscopy based analysis; format: functional, organism-based
Vibrio parahaemolyticus [8] = assay: Induction of morphological changes in Vibrio parahaemolyticus ATCC17802 assessed as cellular inclusion leakage incubated at 5 times MIC and measured after 60 mins by scanning electron microscopy based analysis; format: functional, organism-based
HaCaT = assay: Cytotoxicity against human HaCaT cells incubated for 48 hrs by MTT assay; format: toxicity, cell-based; details: dose < 250 µg/ml
Peritoneal macrophage = assay: Cytotoxicity against mouse peritoneal macrophage cells incubated for 48 hrs by MTT assay; format: toxicity, cell-based; details: dose < 250 µg/ml
[9] = Hemolytic activity in human erythrocytes measured after 30 mins; format: toxicity, cell-based; details: erythrocyte, 0.5 h
Cell membrane [10] = assay: Induction of inner membrane permeabilization in Vibrio parahaemolyticus ATCC17802 at 5 times MIC measured upto 200 mins by propidium iodide penetration assay; format: cell membranes
Cell membrane [11] = assay: Induction of inner membrane permeabilization in Vibrio parahaemolyticus ATCC17802 assessed as calcein leakage at 5 times MIC by calcein-AM leakage assay; format: cell membranes; details: time <= 200.0 min, TDE = time-dependent effect
Cell membrane [12] = assay: Induction of inner membrane permeabilization in Vibrio parahaemolyticus ATCC17802 assessed as increase in PI fluorescence intensity at 5 times MIC by propidium iodide penetration assay; format: cell membranes; details: time <= 200.0 min
Cell membrane [13] = assay: Induction of cytoplasmic membrane permeabilization in Vibrio parahaemolyticus […] assessed as calcein transmembrane diffusion into interior of gaint unilamellar vesicles by measuring time to equilibrium between inside and outside of vesicles at 2 ug/mL by confocal microscopy based calcein-AM leakage assay; format: cell membranes; details: dose 2.0 µg/ml
Cell membrane [14] = assay: Binding affinity to Vibrio parahaemolyticus ATCC17802 cell membrane assessed as increase in fluorescence intensity measured after 30 mins by flow cytometry analysis (reference value: 1.85%); format: cell membranes
Cell membrane [15] = assay: Binding affinity to Vibrio parahaemolyticus ATCC17802 cell membrane assessed as increase in fluorescence intensity measured after 120 mins by flow cytometry analysis (reference value: 1.88%); format: cell membranes
Cell membrane [16] = assay: Induction of outer membrane permeabilization in Vibrio parahaemolyticus ATCC17802 assessed as increase fluorescence intensity at 0.5 to 2 times of MIC by NPN uptake assay; format: cell membranes; details: time <= 15.0 min, TDE = time-dependent effect
Cell membrane [17] = assay: Induction of outer membrane permeabilization in Escherichia coli ATCC25722 assessed as increase fluorescence intensity at 0.5 to 2 times of MIC by NPN uptake assay; format: cell membranes; details: time <= 15.0 min, TDE = time-dependent effect
Cell membrane [18] = assay: Induction of outer membrane permeabilization in Vibrio parahaemolyticus ATCC17802 assessed as increase fluorescence intensity measured upto 15 mins by NPN uptake assay; format: cell membranes
Cell membrane [19] = assay: Induction of outer membrane permeabilization in Escherichia coli ATCC25722 assessed as increase fluorescence intensity measured upto 15 mins by NPN uptake assay; format: cell membranes
Lipopolysaccharide (LPS) [20] = assay: Binding affinity to Escherichia coli LPS assessed as LPS neutralizing activity measured after 5 mins by LPS neutralization assay
Lipopolysaccharide (LPS) [21] = assay: Binding affinity to Escherichia coli LPS assessed as dissociation constant measured upto 600 sec by surface plasmon resonance imaging method
[22] = Effect on morphological changes in POPC/POPG (3:1) bilayer membrane assessed as formation of bulge aggregates by measuring the height of bulges at 2 ug/ml incubated for 40 mins under neutral pH and low ionic strength by atomic force microscopic analysis; format: cell membranes; details: Cell membrane, dose 2.0 µg/ml
Escherichia coli [23] = assay: In vivo antibacterial activity against Escherichia coli ATCC25722 infected in Balb/c mouse model assessed as reduction in bacterial CFU count on skin at 20 ug/ml applied 4 hrs after infection and measured after 120 mins; format: functional, organism-based; details: dose 20.0 µg/ml
Escherichia coli [24] = assay: In vivo antibacterial activity against Escherichia coli ATCC25722 infected in Balb/c mouse model assessed as reduction in bacterial CFU count on skin at 20 ug/ml incubated for 6 hrs post infection and measured after 2 hrs post compound treatment; format: functional, organism-based; details: dose 20.0 µg/ml, time 8.0 hrs
Vibrio parahaemolyticus [25] = assay: Induction of bacterial resistance in Vibrio parahaemolyticus ATCC17802 assessed as fold increase in MIC treated over 30 serial passages measured after 24 hrs; format: functional
Cell membrane [26] = assay: Induction of bacterial inner membrane permeabilization in Vibrio parahaemolyticus ATCC17802 assessed as calcein leakage from large unilamellar vesicles liposomes at 5 times MIC by fluorescence based microplate reader assay; format: cell membranes; details: time <= 60.0 min, TDE = time-dependent effect
Vibrio parahaemolyticus [27] = assay: Induction of morphological changes in Vibrio parahaemolyticus ATCC17802 assessed as cellular inclusion leakage incubated at 5 times MIC and measured after 15 mins by scanning electron microscopy based analysis; format: functional, organism-based
Vibrio parahaemolyticus [28] = assay: Induction of morphological changes in Vibrio parahaemolyticus ATCC17802 assessed as surface fibrosis incubated at 5 times MIC and measured after 15 mins by scanning electron microscopy based analysis; format: functional, organism-based
Vibrio parahaemolyticus [29] = assay: Induction of morphological changes in Vibrio parahaemolyticus ATCC17802 assessed as massive cell collapse incubated at 5 times MIC and measured after 15 mins by scanning electron microscopy based analysis; format: functional, organism-based
Cell membrane [30] = assay: Induction of bacterial inner membrane permeabilization in Vibrio parahaemolyticus ATCC17802 assessed as calcein leakage from large unilamellar vesicles liposomes at 5 times MIC measured upto 60 mins by fluorescence based microplate reader assay; format: cell membranes
Lipopolysaccharide (LPS) [31] = assay: Binding affinity to Escherichia coli LPS assessed as LPS neutralizing activity measured after 60 mins by LPS neutralization assay
Vibrio parahaemolyticus [32] = assay: Induction of bacterial resistance in Vibrio parahaemolyticus ATCC17802 assessed as change in MIC treated over 30 serial passages measured after 24 hrs; format: functional, organism-based

CC[C@H](C)[C@H](NC(=O)[C@H](CC(C)C)NC(=O)[C@H](CCCNC(=N)N)NC(=O)[C@H](CC(C)C)NC(=O)[C@H](CC(C)C)NC(=O)[C@H](CCCCN)NC(=O)[C@H](CCCCN)NC(=O)[C@H](Cc1ccccc1)NC(=O)[C@H](CC(C)C)NC(=O)CNC(=O)[C@@H](N)CC(C)C)C(=O)N[C@@H](CCCCN)C(=O)N[C@@H](CCCCN)C(=O)NCC(=O)N[C@@H](Cc1ccccc1)C(=O)N[C@@H](CCCCN)C(=O)N[C@@H](CCCCN)C(=O)O (H-LGLFKKLLRLIKKGFKK-OH)
MIC (Staphylococcus aureus [1]): 2.34 µg/mL (≈ 1.15 µM)
MIC (Staphylococcus aureus [2]): 18.8 µg/mL (≈ 9.23 µM)
MIC (Bacillus cereus): 4.69 µg/mL (≈ 2.31 µM)
MIC (Escherichia coli [3]): 9.38 µg/mL (≈ 4.62 µM)
MIC (Vibrio parahaemolyticus [4]): 4.69 µg/mL (≈ 2.31 µM)
Time (Vibrio parahaemolyticus [5]): 60 min
Activity (Vibrio parahaemolyticus [6]): Active
Activity (Vibrio parahaemolyticus [7]): Active
Activity (Vibrio parahaemolyticus [8]): Active
Activity (HaCaT): Dose-Dependent Effect
Activity (Peritoneal macrophage): Dose-Dependent Effect
Activity [9]: Toxic
Activity (Cell membrane [10]): Active
Activity (Cell membrane [11]): Tde
Activity (Cell membrane [12]): Active
TIME (Cell membrane [13]): < 0.25 h
Activity (Cell membrane [14]): 64.3%
Activity (Cell membrane [15]): 99.4%
Activity (Cell membrane [16]): Tde
Activity (Cell membrane [17]): Tde
Activity (Cell membrane [18]): Dose-Dependent Effect
Activity (Cell membrane [19]): Dose-Dependent Effect
Activity (Lipopolysaccharide (LPS) [20]): inactive
Kd (Lipopolysaccharide (LPS) [21]): 49.4 µM
Activity [22]: 1 nm
Activity (Escherichia coli [23]): Active
Activity (Escherichia coli [24]): Active
fold change (FC) (Vibrio parahaemolyticus [25]): 2

CC[C@H](C)[C@H](NC(=O)[C@H](CC(C)C)NC(=O)[C@H](CCCNC(=N)N)NC(=O)[C@H](CC(C)C)NC(=O)[C@H](CC(C)C)NC(=O)[C@H](CCCCN)NC(=O)[C@H](CCCCN)NC(=O)[C@H](Cc1ccccc1)NC(=O)[C@H](CC(C)C)NC(=O)CNC(=O)[C@@H](N)CC(C)C)C(=O)N[C@@H](CCCCN)C(=O)N[C@@H](CCCCN)C(=O)NCC(=O)N[C@@H](Cc1ccccc1)C(=O)N[C@@H](CCCCN)C(=O)N[C@@H](CC(C)C)C(=O)O (H-LGLFKKLLRLIKKGFKL-OH)
MIC (Staphylococcus aureus [1]): 1.17 µg/mL (≈ 0.58 µM)
MIC (Staphylococcus aureus [2]): 9.38 µg/mL (≈ 4.65 µM)
MIC (Bacillus cereus): 9.38 µg/mL (≈ 4.65 µM)
MIC (Escherichia coli [3]): 9.38 µg/mL (≈ 4.65 µM)
MIC (Vibrio parahaemolyticus [4]): 4.69 µg/mL (≈ 2.33 µM)
Time (Vibrio parahaemolyticus [5]): 30 min
Activity (Cell membrane [10]): Active
Activity (Cell membrane [11]): Tde
Activity (Cell membrane [12]): Active
Activity (Cell membrane [26]): Tde

CC[C@H](C)[C@H](NC(=O)[C@H](CC(C)C)NC(=O)[C@H](CCCNC(=N)N)NC(=O)[C@H](CC(C)C)NC(=O)[C@H](CC(C)C)NC(=O)[C@H](CCCCN)NC(=O)[C@H](CCCCN)NC(=O)[C@H](Cc1ccccc1)NC(=O)[C@H](CC(C)C)NC(=O)CNC(=O)[C@@H](N)CC(C)C)C(=O)N[C@@H](CC(C)C)C(=O)N[C@@H](CCCCN)C(=O)NCC(=O)N[C@@H](Cc1ccccc1)C(=O)N[C@@H](CCCCN)C(=O)N[C@@H](CC(C)C)C(=O)O (H-LGLFKKLLRLILKGFKL-OH)
MIC (Staphylococcus aureus [1]): 1.17 µg/mL (≈ 0.585 µM)
MIC (Staphylococcus aureus [2]): 9.38 µg/mL (≈ 4.69 µM)
MIC (Bacillus cereus): 9.38 µg/mL (≈ 4.69 µM)
MIC (Escherichia coli [3]): 9.38 µg/mL (≈ 4.69 µM)
MIC (Vibrio parahaemolyticus [4]): 4.69 µg/mL (≈ 2.34 µM)
Time (Vibrio parahaemolyticus [5]): 15 min
Activity (Vibrio parahaemolyticus [27]): Active
Activity (Vibrio parahaemolyticus [28]): Active
Activity (Vibrio parahaemolyticus [29]): Active
Activity (HaCaT): Dose-Dependent Effect
Activity (Peritoneal macrophage): Dose-Dependent Effect
Activity [9]: Toxic
Activity (Cell membrane [10]): Active
Activity (Cell membrane [11]): Tde
Activity (Cell membrane [12]): Active
Activity (Cell membrane [30]): Active
TIME (Cell membrane [13]): < 0.25 h
Activity (Cell membrane [14]): 98.5%
Activity (Cell membrane [15]): 88.1%
Activity (Cell membrane [16]): Tde
Activity (Cell membrane [17]): Tde
Activity (Cell membrane [18]): Dose-Dependent Effect
Activity (Cell membrane [19]): Dose-Dependent Effect
Activity (Lipopolysaccharide (LPS) [20]): Active
Activity (Lipopolysaccharide (LPS) [31]): Active
Kd (Lipopolysaccharide (LPS) [21]): 82.1 µM
Activity [22]: 20 nm
Activity (Escherichia coli [23]): Active
Activity (Escherichia coli [24]): Active
Activity (Vibrio parahaemolyticus [32]): inactive
